This is an account of results in PMC6214909, “An asparagine/glycine switch governs product specificity of human N-terminal methyltransferase NTMT2” (Communications Biology, 2018).

In assay [1] the test system is NTMT1. Kind of assay: MALDI-MS methyltransferase activity assay, NTMT1. Type of assay: biochemical, human. The conditions noted are these: 2 μM NTMT1, 10 μM peptide, 200 μM SAM, 25 mM Tris–HCl pH 7.5, 50 mM KCl, 37 °C, overnight. The protocol:
(§1) A mixture (36 μL) of 2 μM enzyme (NTMT1 or NTMT2), 25 mM Tris–HCl pH 7.5, 50 mM KCl and 200 μM SAM was incubated at 37 °C for 5 min. 4 μL of 100 μM peptide substrate (final concentration 10 μM) was then added to initiate the reaction. The reaction was incubated overnight and then stopped with quenching solution (20 mM NH4H2PO4, 0.4% (v/v) TFA in 1:1 acetonitrile/water). Reaction mixtures were analyzed with an Applied Biosystems Voyager matrix-assisted laser desorption/ionization time-of-flight mass spectrometer. Processing of all spectra results in Data Explorer included application of a noise filter (correlation factor of 1.0) and a baseline correction. Areas of the monoisotopic peaks for all relevant species were combined to obtain a total area for each sample. The fraction of each methylation state was calculated by summing the areas of all the monoisotopic peaks for that state ([M + H]^+, [M + Na]^+, [M + K]^+, [M – H + 2Na]^+, [M – H + 2 K]^+, and [M – H + Na + K]^+) and then dividing by the total area.

Assay [2] deals with T1, NTMT2 (Homo sapiens, UniProt Q5VVY1).
T1 construct: DNA encoding human NTMT2 (residues 58–278) was amplified by PCR; SUMO (His8-SUMO of the pET28-MKH8SUMO vector, with TEV site) (N, cleaved yes); made in house; host or cells: Escherichia coli BL21 (DE3)
T1 sequence (Q5VVY1 58-278): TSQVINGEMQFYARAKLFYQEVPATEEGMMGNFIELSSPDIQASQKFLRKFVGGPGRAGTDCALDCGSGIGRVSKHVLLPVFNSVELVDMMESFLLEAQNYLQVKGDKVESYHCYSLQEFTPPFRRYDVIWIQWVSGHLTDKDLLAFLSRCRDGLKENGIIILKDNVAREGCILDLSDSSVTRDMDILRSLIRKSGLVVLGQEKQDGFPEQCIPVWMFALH
The assay can be described thus: MALDI-MS methyltransferase activity assay, NTMT2. Type of assay: biochemical. The conditions noted are these: 2 μM NTMT2, 10 μM peptide, 200 μM SAM, 25 mM Tris–HCl pH 7.5, 50 mM KCl, 37 °C, overnight. How it is done:
as §1

In assay [3] the test system is NTMT2-N89G mutant. Kind of assay: MALDI-MS methyltransferase activity assay, NTMT2-N89G mutant. Particulars: NTMT2-N89G under the same conditions (2 μM enzyme, 10 μM peptide, 200 μM SAM, pH 7.5, 37 °C, overnight). Type of assay: biochemical, human. The protocol:
as §1

“RPKRIA [synthetic XPKRIA hexapeptide substrate, X = R]”: in assay [1], the Di-methylated fraction is on record as 98.24%, the Mono-methylated fraction came out at 0.00%, the Trimethylated fraction came out at 1.76% and the Unmethylated fraction worked out at 0.00%. Moreover, in assay [2], the Di-methylated fraction turned out to be 0.00%, the Mono-methylated fraction came out at 23.35%, the Trimethylated fraction was 0.00% and the Unmethylated fraction is on record as 76.65%. For the same substance, in assay [3], the Di-methylated fraction is 0.00%, the Mono-methylated fraction is on record as 47.86%, the Trimethylated fraction is on record as 0.00% and the Unmethylated fraction came to 52.14%.
Turning to “YPKRIA [synthetic XPKRIA hexapeptide substrate, X = Y]”, in assay [1], the Di-methylated fraction is recorded as 100.00%, the Mono-methylated fraction came out at 0.00%, the Trimethylated fraction amounted to 0.00% and the Unmethylated fraction is 0.00%. In assay [2], this substance had a Di-methylated fraction of 0.00%, a Mono-methylated fraction of 23.72%, a Trimethylated fraction of 0.00% and an Unmethylated fraction of 76.28%. In assay [3], the Di-methylated fraction is given as 0.00%, the Mono-methylated fraction is given as 87.50%, the Trimethylated fraction is on record as 0.00% and the Unmethylated fraction came to 12.50%.
On to “MPKRIA [synthetic XPKRIA hexapeptide substrate, X = M]”, for which, in assay [1], the Di-methylated fraction is recorded as 91.26%, the Mono-methylated fraction amounted to 0.00%, the Trimethylated fraction was 8.74% and the Unmethylated fraction is recorded as 0.00%. Besides, in assay [2], the Di-methylated fraction is recorded as 0.00%, the Mono-methylated fraction is 41.45%, the Trimethylated fraction was 0.00% and the Unmethylated fraction is 58.55%. Further, in assay [3], the Di-methylated fraction is 0.00%, the Mono-methylated fraction was determined as 100.00%, the Trimethylated fraction was determined as 0.00% and the Unmethylated fraction was 0.00%.
Take “PPKRIA [synthetic XPKRIA hexapeptide substrate, X = P]”: in assay [1], the Di-methylated fraction was determined as 100.00%, the Mono-methylated fraction is recorded as 0.00%, the Trimethylated fraction is 0.00% and the Unmethylated fraction worked out at 0.00%. In assay [2], this substance came in with a Di-methylated fraction of 10.19%, a Mono-methylated fraction of 38.00%, a Trimethylated fraction of 0.00% and an Unmethylated fraction of 51.81%. In assay [3], this substance came in with a Di-methylated fraction of 4.45%, a Mono-methylated fraction of 65.75% and a Trimethylated fraction of 0.00%.
Regarding “VPKRIA [synthetic XPKRIA hexapeptide substrate, X = V]”, in assay [1], the Di-methylated fraction was 45.70%, the Mono-methylated fraction is given as 54.30%, the Trimethylated fraction came to 0.00% and the Unmethylated fraction worked out at 0.00%. In assay [2], this substance returned a Di-methylated fraction of 0.00%, a Mono-methylated fraction of 0.00%, a Trimethylated fraction of 0.00% and an Unmethylated fraction of 100.00%. Also, in assay [3], the Di-methylated fraction is recorded as 0.00%, the Mono-methylated fraction is listed as 4.18%, the Trimethylated fraction turned out to be 0.00% and the Unmethylated fraction is recorded as 95.82%.
In assay [1], “TPKRIA [synthetic XPKRIA hexapeptide substrate, X = T]” gave a Di-methylated fraction of 33.51%, a Mono-methylated fraction of 40.04%, a Trimethylated fraction of 0.00% and an Unmethylated fraction of 26.44%. In assay [2], this substance came in with a Di-methylated fraction of 0.00%, a Mono-methylated fraction of 0.00%, a Trimethylated fraction of 0.00% and an Unmethylated fraction of 100.00%. Moreover, in assay [3], the Di-methylated fraction is reported as 0.00%, the Mono-methylated fraction is 11.78%, the Trimethylated fraction is recorded as 0.00% and the Unmethylated fraction was determined as 88.22%.
